Results: patent publication US20230132202A1, “Polymeric Binder and High Molecular Weight Polymer Antifouling Compositions” (The University of British Columbia, priority 2020, published 2023)

Columns and labels:
[1] = Drug release measurements from coated silicon wafers, UV-Vis; assay type: physicochemical
Description: Drug release measurements: The coated silicon wafers were added into the wells of 96 well-plate and immersed in PBS buffer (200 μL) was added to each well. At day 1 and day 7, the solution was collected and the drug concentration was measured using UV-Vis spectroscopy and standard curves prepared using pure bioactive agents. The released solution was diluted to 1 mL using PBS before the measurements.

[2] = cited from earlier work
[3] = cited from earlier work; remark: listed apart in the source
[4] = day 1, coated silicon wafer in PBS
[5] = day 7, coated silicon wafer in PBS

| Compound | concentration of eluted drug [1, 4] | concentration of eluted drug [1, 5] | Net charge at pH 7.4 [2] | Water solubility [3] [mg/mL] |
| --- | --- | --- | --- | --- |
| CC(=O)O[C@@]12CO[C@@H]1C[C@H](O)[C@@]1(C)C(=O)[C@H](O)C3=C(C)[C@@H](OC(=O)[C@H](O)[C@@H](NC(=O)OC(C)(C)C)c4ccccc4)C[C@@](O)([C@@H](OC(=O)c4ccccc4)[C@H]21)C3(C)C [Docetaxel] | 12.5 ppm (microgram/mL) | 13.7 ppm (microgram/mL) | Neutral | <0.01 |
| CC(=O)O[C@H]1C(=O)[C@@]2(C)[C@H]([C@H](OC(=O)c3ccccc3)[C@]3(O)C[C@H](OC(=O)[C@H](O)[C@@H](NC(=O)c4ccccc4)c4ccccc4)C(C)=C1C3(C)C)[C@]1(OC(C)=O)CO[C@@H]1C[C@@H]2O [Paclitaxel] | 1.3 ppm (microgram/mL) | 1.4 ppm (microgram/mL) |  |  |
| CO[C@H]1/C=C/O[C@@]2(C)Oc3c(C)c(O)c4c(O)c(c(/C=N/N5CCN(C)CC5)c(O)c4c3C2=O)NC(=O)/C(C)=C\C=C\[C@H](C)[C@H](O)[C@@H](C)[C@@H](O)[C@@H](C)[C@H](OC(C)=O)[C@@H]1C [Rifampicin] |  |  |  | 0.0413 |
| NC[C@H]1O[C@H](O[C@H]2[C@H](O)[C@@H](O[C@H]3O[C@H](CO)[C@@H](O)[C@H](N)[C@H]3O)[C@H](N)C[C@@H]2N)[C@H](N)C[C@@H]1O [Tobramycin] |  |  | Neutral | 53.7 |
| Gentamicin |  |  | Neutral |  |
| Penicillin |  |  | Neutral | >30 |
